Measured values reported in patent US11541081B2, “Methods and compositions for changing the composition of the skin microbiome using complex mixtures of bacterial strains” (priority 2016, dated 2023).

Legend:
[1] = MBC test, 24 h exposure to benzoic acid, then 4 days on RCM agar; conditions: all P. acnes strains tested
P. acnes = conditions: Allgaier et al., 1985; cited from earlier work
P. acnes strains = test: Inhibition of P. acnes strains by salicylic acid; assay type: cell-based
skin microbiome = test: Pilot clinical study: bacterial species composition of skin microbiome (16S); assay type: in vivo, human; conditions: after BPO application (Day 7)
Method: (§1) The pilot study was performed for 6 weeks with 14 subjects between 18-23 years. The primary endpoints were safety and efficacy trends. Two different bacterial formulations: A2 (a 2-strain mixture comprising strains C3 and K8 of P. acnes) and B4 (a 4-strain mixture comprising strains C3, K8, A5, and F4 of P. acnes) were tested.
(§2) Subjects were randomly distributed into two arms with different bacterial formulations administered to the subjects in each arm. Bacterial formulations were double-blinded: Arm 1: n=8 subjects received formulation A2. Arm 2: n=6 subjects received formulation B4. Subjects were evaluated on Day 1, Day 7, Day 21, and Day 42. In the first week, between Day 1 and Day 7, all subjects received Benzoyl peroxide (BPO) treatment (applied once a day). In the following 5 weeks, between Day 7 and Day 42, all subjects received bacterial formulation (gel applied 2× per day). FIG. 8A depicts the design of the pilot study.
The composition of bacterial species (16S) in the microbiome samples were analyzed on each visit. […]
When relating the bacterial species (16S) data with the strain level data (SLST) of P. acnes, it was observed that on Day 1 (ground state) the relative abundance of P. acnes was lower in acceptors (34%) compared to non-acceptors (41%). […] Relative abundances were determined using classical 16S amplicon sequencing. […]

acne patients = test: Pilot clinical study: safety evaluation; assay type: in vivo, human; conditions: BPO once a day, Day 1-Day 7, 14 subjects
Method: as §1, §2
The safety of the administered formulations was evaluated, for example, by visual evaluation of the redness, irritation or any other skin problems during each visit. No safety issues were observed during the study. Seven subjects reported dry or red skin during the use of BPO (Day 1-Day 7). […] No adverse effects were observed associated with the administration of live bacteria.

O=C(O)c1ccccc1 [Benzoic acid]
concentration of benzoic acid affecting the growth of all strains (MBC test) [1]: greater than 0.31 % vol/vol

Epidermin
activity against P. acnes (P. acnes): highly active

O=C(O)c1ccccc1O [salicylic acid]
inhibition of P. acnes strains (P. acnes strains): not inhibited

O=C(OOC(=O)c1ccccc1)c1ccccc1 [BPO, Benzoyl peroxide]
change of total P. acnes population (skin microbiome): decrease | subjects reporting dry or red skin (acne patients): Seven
